Assay results as given in the Kinase Knowledgebase extract (Sharma et al. 2016).

Key:
PIK3CB (Human) [1] = target: PIK3CB (Human) (UniProt P42338); assay: Enzyme Assay
PIK3CB (Human) [2] = target: PIK3CB (Human) (UniProt P42338); assay: Cell-Based Assay; conditions: mda-mb-468

Chain of PIK3CB (Human) (P42338 whole entry, looked up): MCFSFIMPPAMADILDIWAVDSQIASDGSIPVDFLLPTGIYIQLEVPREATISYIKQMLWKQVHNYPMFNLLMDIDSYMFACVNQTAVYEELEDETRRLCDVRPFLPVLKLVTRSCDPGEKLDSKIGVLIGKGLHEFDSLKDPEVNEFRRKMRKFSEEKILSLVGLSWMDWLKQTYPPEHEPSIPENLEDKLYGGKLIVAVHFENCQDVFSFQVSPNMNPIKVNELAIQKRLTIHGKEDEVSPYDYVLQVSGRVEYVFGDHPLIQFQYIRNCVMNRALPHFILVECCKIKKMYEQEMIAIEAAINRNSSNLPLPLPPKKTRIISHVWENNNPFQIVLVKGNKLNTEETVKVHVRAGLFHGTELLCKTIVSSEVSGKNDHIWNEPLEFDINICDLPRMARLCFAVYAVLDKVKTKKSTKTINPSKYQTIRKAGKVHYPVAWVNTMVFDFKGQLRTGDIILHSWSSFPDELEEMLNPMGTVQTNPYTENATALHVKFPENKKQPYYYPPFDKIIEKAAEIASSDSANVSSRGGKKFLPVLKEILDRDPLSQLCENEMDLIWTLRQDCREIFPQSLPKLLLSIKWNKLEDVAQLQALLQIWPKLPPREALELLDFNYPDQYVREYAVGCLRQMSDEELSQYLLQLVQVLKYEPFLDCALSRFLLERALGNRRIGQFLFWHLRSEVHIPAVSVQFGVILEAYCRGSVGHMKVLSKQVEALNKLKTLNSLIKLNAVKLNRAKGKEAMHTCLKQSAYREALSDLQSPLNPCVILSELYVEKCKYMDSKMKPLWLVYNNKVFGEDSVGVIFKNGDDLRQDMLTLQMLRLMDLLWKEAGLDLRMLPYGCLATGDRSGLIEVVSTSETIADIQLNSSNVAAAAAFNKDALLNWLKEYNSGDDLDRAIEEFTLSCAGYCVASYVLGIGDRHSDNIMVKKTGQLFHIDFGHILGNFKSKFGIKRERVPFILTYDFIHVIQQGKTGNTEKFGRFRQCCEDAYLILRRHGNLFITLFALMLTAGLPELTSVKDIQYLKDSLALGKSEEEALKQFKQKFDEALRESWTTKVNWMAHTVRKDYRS

| Structure (SMILES) | IC50 (PIK3CB (Human) [1]) [µM] | EC50 (PIK3CB (Human) [2]) [µM] |
| --- | --- | --- |
| CC1=NC(=O)C2SC(N3CCOCC3)=NC2N1Cc1cccc(C(F)(F)F)c1C (configuration not stated) | 0.000631 |  |
| Cc1c(Cc2cnn3c(O)cc(-c4ccncc4)nc23)cccc1C(F)(F)F |  | 15.8 |
| COc1nn2c(O)cc(-c3ccncc3)nc2c1Cc1cccc(Cl)c1Cl |  | 25.1 |
| Cc1nn2c(O)cc(N3CCOCC3)nc2c1Cc1cccc(C(F)(F)F)c1C |  | 5.01 |
| Cc1nn2c(O)cc(C3CCOCC3)nc2c1Cc1cccc(C(F)(F)F)c1C |  | 15.8 |
| Nc1nn2c(O)cc(C3CCOCC3)nc2c1Cc1cccc(Cl)c1Cl |  | 10 |
| Cc1nn2c(O)cc(N3CCOCC3)nc2c1Cc1cccc2ccccc12 |  | 3.98 |
| Cc1c(Cc2c(O)nn3c(O)cc(C4CCOCC4)nc23)cccc1C(F)(F)F | 0.0631 |  |

More lines, in order of falling EC50 (PIK3CB (Human) [2]), values ahead:

| IC50 (PIK3CB (Human) [1]) [µM] | EC50 (PIK3CB (Human) [2]) [µM] | Structure (SMILES) |
| --- | --- | --- |
|  | 3.16 | Cc1c(Cc2cnn3c(O)cc(N4CCOCC4)nc23)cccc1C(F)(F)F |
|  | 3.16 | Cc1nn2c(C(=O)O)cc(N3CCOCC3)nc2c1Cc1cccc(C(F)(F)F)c1C |
|  | 2 | Cc1nn2c(C(N)=O)cc(N3CCOCC3)nc2c1Cc1cccc(C(F)(F)F)c1C |
|  | 1.26 | Cc1nn2c(NC(N)=O)cc(N3CCOCC3)nc2c1Cc1cccc(C(F)(F)F)c1C |
